# Test system: JeKo-1 cells
# Experiment: Co-culture of T cells (unmodified or expressing nfP2X7 CAR) with JeKo-1 cells, with or without blocking peptide
# Type: cell-based
# Conditions: FIG. 3
# Method: More specifically, T cells (either unmodified or expressing nfP2X7 CAR) were cultured with JeKo-1 cells at an ET ratio of 5 to 1. Blocking was performed using peptide variant 2 at 5 μg/mL.
# On day 5 of co-culture the cell counts were measured and evaluated for total JeKo-1 cell count. The total number of JeKo-1 cells added in the experiment was 20,000 on day 1 and day 3 of the experiment (therefore the total amount of added cells was 40,000 JeKo-1 per condition).
# Addition of the blocking peptide variant 2 at 5 ug/mL reversed this such that after 5 days, 40,000 JeKo-1 cells were present in culture.
sequence,measurement,setting,value
DFPGHNYTTRNILPGLNITSTFHKTSGSGKGGGGS (E200_extended peptide 17v12 (35 aa) + linker) [peptide variant 2],total JeKo-1 cell count,"T cells expressing nfP2X7 CAR, ET 5 to 1, peptide at 5 ug/mL, day 5 of co-culture, 40,000 JeKo-1 added in total","40,000 cells"
same,total JeKo-1 cell count,"T cells that do not express nfP2X7 CAR (60,000 cells after 5 days without peptide), effect of adding blocking peptide",not changed

# From patent US20250282844A1, “METHODS FOR CONTROLLING IMMUNE CELL ACTIVITY” (BIOSCEPTRE (AUST) PTY LTD, priority 2021, published 2025)
